Measured values as given in ChEMBL document CHEMBL2429750, “Inhibitors of tick-borne flavivirus reproduction from structure-based virtual screening” (ACS Med Chem Lett, 2013).

Legend:
[1] = tested on: Omsk hemorrhagic fever virus; assay: Antiviral activity against Omsk hemorrhagic fever virus Nikitina infected in PEK cells assessed as inhibition of viral plaque formation after 1 hr by gentian violet staining assay; format: functional, cell-based
[2] = tested on: Powassan virus; assay: Antiviral activity against Powassan virus 24 infected in PEK cells assessed as inhibition of viral plaque formation after 1 hr by gentian violet staining assay; format: functional, cell-based; conditions: for IC50: Powassan virus, 24, PEK
[3] = tested on: Tick-borne encephalitis virus; assay: Antiviral activity against Tick-borne encephalitis virus Absettarov infected in PEK cells assessed as inhibition of viral plaque formation after 1 hr by gentian violet staining assay; format: functional, cell-based
[4] = Chronic cytotoxicity against PEK cells after 7 days by neutral red staining assay; format: cell-based, Sus scrofa; conditions: pig
[5] = Acute cytotoxicity against PEK cells after 24 hrs by neutral red staining assay; format: cell-based, Sus scrofa; conditions: pig

| Structure (SMILES) | IC50 [1] [µM] | inhibition [1] | inhibition [2] | IC50 [2] [µM] | IC50 [3] [µM] | inhibition [3] | CC50 at 168 h [4] [µM] | CC50 at 24 h [5] [µM] |
| --- | --- | --- | --- | --- | --- | --- | --- | --- |
| CC1=C(C(=O)Nc2ccc(Cl)cc2)C(c2ccccc2)C(C#N)=C(SCC(=O)Nc2cccc(C)c2)N1 (racemic) | > 10 | Dose-dependent effect | Dose-dependent effect | > 10 | 2 | Dose-dependent effect | 41 | > 250 |
| CCc1ccc(NC(=O)CSC2=C(C#N)C(c3ccco3)C(C(=O)Nc3ccc(CC)cc3)=C(C)N2)cc1 (racemic) | > 10 | Dose-dependent effect | Dose-dependent effect | > 10 | > 10 | Dose-dependent effect | 33 | 57 |
| CCc1ccc(NC(=O)CSC2=C(C#N)C(c3ccco3)C(C(=O)Nc3ccc(Cl)cc3)=C(C)N2)cc1 (racemic) | > 10 | Dose-dependent effect | Dose-dependent effect | > 10 | > 10 | Dose-dependent effect | 27 | 26 |
| CCc1ccc(NC(=O)CSC2=C(C#N)C(c3ccco3)C(C(=O)Nc3ccc(S(N)(=O)=O)cc3)=C(C)N2)cc1 (racemic) | 10 | Dose-dependent effect | Dose-dependent effect | > 10 | > 10 | Dose-dependent effect | 153 | > 250 |
| CCc1ccc(NC(=O)CSC2=C(C#N)C(c3ccc(O)c(OC)c3)C(C(=O)Nc3ccccc3)=C(C)N2)cc1 (racemic) | 1.8 | Dose-dependent effect | Dose-dependent effect | > 10 | > 10 | Dose-dependent effect | 31 | 114 |
| CCCCc1ccc(NC(=O)CSC2=C(C#N)C(c3ccco3)C(C(=O)Nc3ccc(OCC)cc3)=C(C)N2)cc1 (racemic) | > 10 | Dose-dependent effect | Dose-dependent effect | > 10 | 2.5 | Dose-dependent effect | 14 | 64 |
| CC1=C(C(=O)Nc2ccccc2)C(c2ccco2)C(C#N)=C(SCC(=O)Nc2ccc(C)c(C)c2)N1 (racemic) | 3.2 | Dose-dependent effect | Dose-dependent effect | > 10 | > 10 | Dose-dependent effect | 19 | > 250 |
| CC1=C(C(=O)Nc2ccc(Cl)cc2)C(c2ccccc2)C(C#N)=C(SCC(=O)Nc2ccc3ccccc3c2)N1 (racemic) | > 10 | Dose-dependent effect | Dose-dependent effect | > 10 | > 10 | Dose-dependent effect | 20 | 111 |
| CCc1ccc(N2CSC3=C(C#N)C(c4cccc(OCc5ccccc5)c4)CC(=O)N3C2)cc1 (racemic) | > 11.9 | Dose-dependent effect | Dose-dependent effect | > 10 | > 10 | Dose-dependent effect | 236 | > 250 |
| COc1ccc(NC(=O)CSC2=C(C#N)C(c3ccccc3F)C(C(=O)Nc3ccccc3C)=C(C)N2)cc1 (racemic) | 7.2 | Dose-dependent effect | Dose-dependent effect | > 10 | > 10 | Dose-dependent effect | 89 | > 250 |
| COc1ccccc1NC(=O)C1=C(C)NC(SCC(=O)Nc2ccc(C)cc2)=C(C#N)C1c1cccs1 (racemic) | 5.5 | Dose-dependent effect | Dose-dependent effect | > 10 | > 10 | Dose-dependent effect | 97 | > 250 |
| CC1=C(C(=O)Nc2ccccc2)C(c2cccs2)C(C#N)=C(SCC(=O)c2ccccc2)N1 (racemic) | > 10 | Dose-dependent effect | Dose-dependent effect | > 10 | > 10 | Dose-dependent effect | 17 | > 250 |
| CCCCc1ccc(N2CSC3=C(C#N)C(c4ccc(OCc5ccccc5)cc4)CC(=O)N3C2)cc1 (racemic) | > 10 | Dose-dependent effect | Dose-dependent effect | > 10 | 1.9 | Dose-dependent effect | 35 | > 250 |
| CC1=C(C(=O)Nc2c(C)cccc2C)C(c2ccco2)C(C#N)=C(SCC(=O)Nc2nc3ccccc3s2)N1 (racemic) | 7.1 | Dose-dependent effect | Dose-dependent effect | > 10 | > 10 | Dose-dependent effect | 7 | > 250 |
| CC1=C(C(=O)Nc2ccc(Cl)cc2)C(c2ccccc2)C(C#N)=C(SCC(=O)Nc2ccc(Oc3ccccc3)cc2)N1 (racemic) | > 10 | Dose-dependent effect | Dose-dependent effect | > 10 | 2.8 | Dose-dependent effect | 38 | > 250 |
| CC1=C(C(=O)Nc2nc3ccccc3s2)C(c2ccco2)C(C#N)=C(SCC(=O)Nc2nc3ccccc3s2)N1 (racemic) | 2.5 | Dose-dependent effect | Dose-dependent effect | > 10 | > 10 | Dose-dependent effect | 52 | > 250 |
| CCOc1ccccc1N1CSC2=C(C#N)C(c3cccc(OCc4ccccc4)c3)CC(=O)N2C1 (racemic) | > 10 | Dose-dependent effect | Dose-dependent effect | 2.2 | 2.6 | Dose-dependent effect | 116 | > 250 |
| COc1ccc(N2CSC3=C(C#N)C(c4ccc(OCc5ccccc5)c(OC)c4)CC(=O)N3C2)cc1 (racemic) | > 10 | Dose-dependent effect | Dose-dependent effect | > 10 | 0.09 | Dose-dependent effect | 53 | > 250 |
| CC1=C(C(=O)Nc2ccccc2C)C(c2ccco2)C(C#N)=C(SCC(=O)Nc2ccc3ccccc3c2)N1 (racemic) | 5.3 | Dose-dependent effect | Dose-dependent effect | > 10 | > 10 | Dose-dependent effect | > 250 | > 250 |
| COc1ccccc1NC(=O)C1=C(C)NC(SCC(=O)Nc2ccc(Br)cc2)=C(C#N)C1c1ccc(C)o1 (racemic) | 3.7 | Dose-dependent effect | Dose-dependent effect | > 10 | > 10 | Dose-dependent effect | 34 | 248 |
| CC1=C(C(=O)Nc2nc3ccccc3s2)C(c2ccco2)C(C#N)=C(SCC(=O)Nc2ccc(C(C)C)cc2)N1 (racemic) | 2.5 | Dose-dependent effect | Dose-dependent effect | > 10 | > 10 | Dose-dependent effect | 29 | > 250 |
| COc1ccc(N2CSC3=C(C#N)C(c4ccc(OCc5ccc(Cl)cc5)cc4)CC(=O)N3C2)c(OC)c1 (racemic) | > 10 | Dose-dependent effect | Dose-dependent effect | 1.3 | 0.07 | Dose-dependent effect | 39 | 109 |
